Earlier results on one compound are cited in patent publication US20080175903A1, “Treatment of anxiety with eszopiclone” (Sepracor Inc., priority 2006, published 2008).

The test system of this series is rhesus monkeys. To be noted: previously published in Rowlett et al., 2006; cited from earlier work.

Turning to `CN1C(=O)CN=C(c2ccccc2)c2cc(Cl)ccc21` [Diazepam, diazepam], the “ED50, non-suppressed responding” value is 1.65 mg/kg and the “ED50, suppressed responding” value is recorded as 0.11 mg/kg.
